Results as given in patent publication US4220755A, “Fortimicin B derivatives and process for production thereof” (Abbott Laboratories, priority 1976, dated 1980).
In brackets after ≈: the same amount, converted by molar mass. Read-outs that look alike come from different tables or passages of the source.

Columns and labels:
Escherichia coli NIHTC-2 = assay: MIC, agar dilution method, pH 7.2; type: cell-based; conditions: NIHTC2; pH 7.2; Escherichia coli NIHTC-2; read-out: Minimum inhibition concentration (MIC)
Procedure: (§1) Measurement was carried out according to the agar dilution method, using a medium of pH 8.0, or the Japanese Antibiotic Medicament Standard, using a medium of pH 7.2 Units are in mcg/ml.

[1] = system: Eschericihia coli GN2411-5; assay: MIC, agar dilution method, pH 7.2; type: cell-based; conditions: Escherichia coli; pH 7.2; E. coli GN2411-5; read-out: Minimum inhibition concentration (MIC)
Procedure: as §1

[2] = system: Klebsiella pneumoniae KY4274; assay: MIC, agar dilution method, pH 7.2; type: cell-based; conditions: pH 7.2; Klebsiella pneumoniae KY4274; read-out: Minimum inhibition concentration (MIC)
Procedure: as §1

Proteus vulgaris JJ = assay: MIC, agar dilution method, pH 7.2; type: cell-based; conditions: pH 7.2; Proteus vulgaris JJ; read-out: Minimum inhibition concentration (MIC)
Procedure: as §1

[3] = system: Pseudomonas aeruginosa BMH# 1; assay: MIC, agar dilution method, pH 7.2; type: cell-based; conditions: pH 7.2; Pseudomonas aeruginosa BMH# 1; read-out: Minimum inhibition concentration (MIC)
Procedure: as §1

[4] = system: Pseudomonas aeruginosa UCLA 4184; assay: MIC, agar dilution method, pH 7.2; type: cell-based; conditions: UCLA4184; pH 7.2; Pseudomonas aeruginosa UCLA 4184; read-out: Minimum inhibition concentration (MIC)
Procedure: as §1

[5] = system: Salmonella enteritidis G-14; assay: MIC, agar dilution method, pH 7.2; type: cell-based; conditions: Salmonella enterica; pH 7.2; Salmonella enteritidis G-14; read-out: Minimum inhibition concentration (MIC)
Procedure: as §1

Shigella sonnei ATCC9290 = assay: MIC, agar dilution method, pH 7.2; type: cell-based; conditions: read-out: Minimum inhibition concentration (MIC)
Procedure: as §1

[6] = system: Staphylococcus aureus 209-P; assay: MIC, agar dilution method, pH 7.2; type: cell-based; conditions: pH 7.2; Staphylococcus aureus 209-P; read-out: Minimum inhibition concentration (MIC)
Procedure: as §1

[7] = system: Staphylococcus aureus Smith (A); assay: MIC, agar dilution method, pH 7.2; type: cell-based; conditions: pH 7.2; Staphylococcus aureus Smith (A); read-out: Minimum inhibition concentration (MIC)
Procedure: as §1

[8] = system: Staphylococcus a ureus 226; assay: MIC, agar dilution method, pH 7.2; type: cell-based, Staphylococcus aureus; conditions: pH 7.2; Staphylococcus aureus 226; read-out: Minimum inhibition concentration (MIC)
Procedure: as §1

Eschericihia coli 3100 = assay: MIC, agar dilution method, pH 7.2; type: cell-based, Escherichia coli; conditions: Escherichia coli; pH 7.2; E. coli 3100; read-out: Minimum inhibition concentration (MIC)
Procedure: as §1

[9] = system: Escherichia coli 57R/W677; assay: MIC, agar dilution method, pH 7.2; type: cell-based; conditions: 57R/W677, pH 7.2, read-out: Minimum inhibition concentration (MIC)
Procedure: as §1
(§2) **1: gentamicin, producing adenylsynthetase.

Escherichia coli 76-2 = assay: MIC, agar dilution method, pH 7.2; type: cell-based; conditions: Escherichia coli, 762; pH 7.2; E. coli 76-2; 1**: gentamicin, producing adenylsynthetase; read-out: Minimum inhibition concentration (MIC)
Procedure: as §1, §2

[10] = system: Escherichia coli R12 Z-338; assay: MIC, agar dilution method, pH 7.2; type: cell-based; conditions: R12Z338, pH 7.2, E. coli R12 Z-338, 1**: gentamicin, producing adenylsynthetase, read-out: Minimum inhibition concentration (MIC)
Procedure: as §1, §2

[11] = system: Klebsiella pneumoniae 3020 Y-60; assay: MIC, agar dilution method, pH 7.2; type: cell-based; conditions: 3020Y60; pH 7.2; Klebsiella pneumoniae 3020 Y-60; 1**: gentamicin, producing adenylsynthetase; read-out: Minimum inhibition concentration (MIC)
Procedure: as §1, §2

[12] = system: Escherichia coli R18 KY8321; assay: MIC, agar dilution method, pH 7.2; type: cell-based; conditions: R18KY8321, E. coli R18 KY8321, 2**: gentamicin, producing adenylsynthetase and neomycin phosphotransferase type II, read-out: Minimum inhibition concentration (MIC)
Procedure: as §1
2: gentamicin, producing adenylsynthetase and neomycin phosphotransferase

[13] = system: Escherichia coli R17 Z343; assay: MIC, agar dilution method, pH 7.2; type: cell-based; conditions: R17Z343, pH 7.2, E. coli R17 Z343, 3**: kanamycin, producing acetyltransferase, read-out: Minimum inhibition concentration (MIC)
Procedure: as §1
(§3) 3: kanamycin, producing acetyltransferase.

[14] = system: Pseudomonas aeruginosa R9 KY8516; assay: MIC, agar dilution method, pH 7.2; type: cell-based; conditions: R9KY8516, pH 7.2, P. aeruginosa R9 KY8516, 3**: kanamycin, producing acetyltransferase, read-out: Minimum inhibition concentration (MIC)
Procedure: as §1, §3

Serratia marcescens 1065 = assay: MIC, agar dilution method, pH 7.2; type: cell-based; conditions: pH 7.2; Serratia marcescens 1065; 3**: kanamycin, producing acetyltransferase; read-out: Minimum inhibition concentration (MIC)
Procedure: as §1, §3

[15] = system: Escherichia coli R19 KY8348; assay: MIC, agar dilution method, pH 7.2; type: cell-based; conditions: R19KY8348, pH 7.2, E. coli R19 KY8348, 4**: gentamicin, producing acetyltransferase type I, read-out: Minimum inhibition concentration (MIC)
Procedure: as §1
(§4) 4: gentamicin, producing acetyltransferase type I.

[16] = system: Pseudomonas aeruginosa R4 KY8511; assay: MIC, agar dilution method, pH 7.2; type: cell-based; conditions: R4KY8511, pH 7.2, P. aeruginosa R4 KY8511, 4**: gentamicin, producing acetyltransferase type I, read-out: Minimum inhibition concentration (MIC)
Procedure: as §1, §4

[17] = system: Escherichia coli R20 KY8349; assay: MIC, agar dilution method, pH 7.2; type: cell-based; conditions: R20KY8349, pH 7.2, E. coli R20 KY8349, 5**: neomycin, producing phosphotransferase type I, read-out: Minimum inhibition concentration (MIC)
Procedure: as §1
5: neomycin, producing phosphotransferase type I.

[18] = system: Pseudomonas aeruginosa R5 KY8512; assay: MIC, agar dilution method, pH 7.2; type: cell-based; conditions: R5KY8512, pH 7.2, P. aeruginosa R5 KY8512, 6**: neomycin, producing phosphotransferase type I and type II, read-out: Minimum inhibition concentration (MIC)
Procedure: as §1
6: neomycin, producing phosphotransferase type I and type II.

Providencia sp 164 = assay: MIC, agar dilution method, pH 7.2; type: cell-based; conditions: pH 7.2; Providencia sp 164; 7**: gentamicin, producing acetyltransferase type II; read-out: Minimum inhibition concentration (MIC)
Procedure: as §1
7: gentamicin, producing acetyltransferase type II.

[19] = system: Staphylococcus aureus KY4279 ATCC6538P; assay: MIC, agar dilution method, pH 8.0; type: cell-based
Procedure: as §1
S.A.: Staphylococcus aureus KY4279 ATCC6538P

Bacillus subtilis KY4273 = assay: MIC, agar dilution method, pH 8.0; type: cell-based; conditions: pH 8.0; Bacillus subtilis KY4273; read-out: Minimum inhibition concentration (MIC), BS
Procedure: as §1
B.S.: Bacillus subtilis KY4273

[20] = system: Eschericia coli KY4271 ATCC26; assay: MIC, agar dilution method, pH 8.0; type: cell-based; conditions: Escherichia coli
Procedure: as §1
E.C.: Eschericia coli KY4271 ATCC26

[21] = system: Proteus vulgaris KY4277 ATCC6897; assay: MIC, agar dilution method, pH 8.0; type: cell-based
Procedure: as §1

[22] = system: Shigella sonnei KY4281 ATCC9290; assay: MIC, agar dilution method, pH 8.0; type: cell-based; conditions: ATCC9290; pH 8.0; Shigella sonnei KY4281; read-out: Minimum inhibition concentration (MIC), SS
Procedure: as §1

[23] = system: Salmonella typhosa KY4278 ATCC9992; assay: MIC, agar dilution method, pH 8.0; type: cell-based; conditions: Salmonella enterica, pH 8, read-out: Minimum inhibition concentration (MIC), ST
Procedure: as §1
S.T.: Salmonella typhosa KY4278 ATCC9992

[24] = system: Klebsiella pneumoniae KY4275 ATCC10031; assay: MIC, agar dilution method, pH 8.0; type: cell-based; conditions: ATCC10031; pH 8.0; Klebsiella pneumoniae KY4275; read-out: Minimum inhibition concentration (MIC), KP
Procedure: as §1
K.P.: Klebsiella pneumoniae KY4275 ATCC10031.

[25] = ATCC6897, pH 8.0, Proteus vulgaris KY4277, read-out: Minimum inhibition concentration (MIC), PV
[26] = pH 8.0, Staphylococcus aureus KY4279, read-out: Minimum inhibition concentration (MIC), SA
[27] = ATCC26, pH 8.0, E. coli KY4271, read-out: Minimum inhibition concentration (MIC), EC

## CO[C@H]1[C@@H](O)[C@H](N)[C@@H](O[C@H]2O[C@H]([C@H](C)N)CC[C@H]2N)[C@H](O)[C@@H]1N(C)C(=O)CO [Compound 4, 4-N-glycolylfortimicin B]
Escherichia coli NIHTC-2
  MIC: 12.5 µg/mL (≈ 30.8 µM)
[1]
  MIC: 12.5 µg/mL (≈ 30.8 µM)
[2]
  MIC: 25 µg/mL (≈ 61.5 µM)
Proteus vulgaris JJ
  MIC: 25 µg/mL (≈ 61.5 µM)
[3]
  MIC: 50 µg/mL (≈ 123 µM)
[4]
  MIC: 100 µg/mL (≈ 246 µM)
[5]
  MIC: 25 µg/mL (≈ 61.5 µM)
Shigella sonnei ATCC9290
  MIC: 25 µg/mL (≈ 61.5 µM)
[6]
  MIC: 3.12 µg/mL (≈ 7.68 µM)
[7]
  MIC: 3.12 µg/mL (≈ 7.68 µM)
[8]
  MIC: 12.5 µg/mL (≈ 30.8 µM)
Eschericihia coli 3100
  MIC: 12.5 µg/mL (≈ 30.8 µM)
[9]
  MIC: 25 µg/mL (≈ 61.5 µM)
Escherichia coli 76-2
  MIC: 6.25 µg/mL (≈ 15.4 µM)
[10]
  MIC: 25 µg/mL (≈ 61.5 µM)
[11]
  MIC: > 100 µg/mL
[12]
  MIC: 6.25 µg/mL (≈ 15.4 µM)
[13]
  MIC: 6.25 µg/mL (≈ 15.4 µM)
[14]
  MIC: 100 µg/mL (≈ 246 µM)
Serratia marcescens 1065
  MIC: 50 µg/mL (≈ 123 µM)
[15]
  MIC: > 100 µg/mL
[16]
  MIC: > 100 µg/mL
[17]
  MIC: 12.5 µg/mL (≈ 30.8 µM)
[18]
  MIC: 50 µg/mL (≈ 123 µM)
Providencia sp 164
  MIC: 100 µg/mL (≈ 246 µM)
[19]; Staphylococcus aureus, pH 8, read-out: Minimum inhibition concentration (MIC), SA
  MIC: 1.25 µg/mL (≈ 3.08 µM)
Bacillus subtilis KY4273
  MIC: 5 µg/mL (≈ 12.3 µM)
[20]; ATCC26, pH 8, read-out: Minimum inhibition concentration (MIC), EC
  MIC: 1.25 µg/mL (≈ 3.08 µM)
[21]; [25]
  MIC: 2.5 µg/mL (≈ 6.15 µM)
[22]
  MIC: 5 µg/mL (≈ 12.3 µM)
[23]
  MIC: 1.25 µg/mL (≈ 3.08 µM)
[24]
  MIC: 5 µg/mL (≈ 12.3 µM)

## CNCCN(C)[C@H]1[C@@H](O)[C@H](O[C@H]2O[C@H]([C@H](C)N)CC[C@H]2N)[C@@H](N)[C@H](O)[C@@H]1OC [Compound 26, 4-N-(2-methylaminoethyl)fortimicin B]
[19]; [26]
  MIC: 0.04 µg/mL (≈ 0.0986 µM)
Bacillus subtilis KY4273
  MIC: 0.32 µg/mL (≈ 0.789 µM)
[20]; [27]
  MIC: 0.16 µg/mL (≈ 0.395 µM)
[21]; Proteus vulgaris, ATCC6897, pH 8, read-out: Minimum inhibition concentration (MIC), PV
  MIC: 1.25 µg/mL (≈ 3.08 µM)
[22]
  MIC: 5 µg/mL (≈ 12.3 µM)
[23]
  MIC: 1.25 µg/mL (≈ 3.08 µM)
[24]
  MIC: 5 µg/mL (≈ 12.3 µM)

## CNCCC(O)CN(C)[C@H]1[C@@H](O)[C@H](O[C@H]2O[C@H]([C@H](C)N)CC[C@H]2N)[C@@H](N)[C@H](O)[C@@H]1OC (stereo partly drawn) [Compound 30, 4-N-[(R,S)-4-methylamino-2-hydroxybutyl]fortimicin B]
[19]; [26]
  MIC: 0.08 µg/mL (≈ 0.178 µM)
Bacillus subtilis KY4273
  MIC: 0.02 µg/mL (≈ 0.0445 µM)
[20]; [27]
  MIC: 0.32 µg/mL (≈ 0.712 µM)
[21]; [25]
  MIC: 0.16 µg/mL (≈ 0.356 µM)
[22]
  MIC: 0.63 µg/mL (≈ 1.4 µM)
[23]
  MIC: 0.08 µg/mL (≈ 0.178 µM)
[24]
  MIC: 0.32 µg/mL (≈ 0.712 µM)
